Reference: patent publication US20060079453A1, “Hla binding peptides and their uses” (priority 2002, published 2006)
Where two headings read alike, the source gives them in different places. No end group written: not given here.

Assays:
Test in all cases: biochemical
Type in all cases: binding
HLA-DR DRB1*0301 (DR3) = HLA-DR DRB1*0301 (DR3) (Homo sapiens, UniProt P01903+P01911, A100K/A102G/A103R/A169T/F55Y/I96L/K41T/L162R/M171V/P40S/Q125H/Q178H/Q39Y/R42S/S66N/T106N/T262R/W38E/Y61H)
HLA-DR DRB5*0101 (DR51) = HLA-DR DRB5*0101 (DR51) (Homo sapiens, UniProt P01903+Q30154)
HLA-DR DRB4*0101 (DR53) = HLA-DR DRB4*0101 (DR53) (Homo sapiens, UniProt P01903+P13762, G164S)
HLA-DR DRB1*0701 (DR7) = HLA-DR DRB1*0701 (DR7) (Homo sapiens, UniProt P01903+P01911, A100R/A102G/A103Q/D57E/D86V/E43K/F76Y/K127E/L162R/M171V/P40G/Q125H/Q99D/R33Q/R42Y/R54Q/S133A/S66F/T210M/V115G/Y107V/Y59L/Y89S)
HLA-DR DRB1*0101 (DR1) = HLA-DR DRB1*0101 (DR1) (Homo sapiens, UniProt P01903+P01911, A100R/D57E/F55L/F60I/F76Y/I96L/L162R/M171V/P40L/Q125E/R42F/V115G/Y59C)
HLA-DR DRB1*1302 (DR13) = HLA-DR DRB1*1302 (DR13) (Homo sapiens, UniProt P01903+P01911, A100E/A169T/K41T/L162R/M171V/P40S/Q125H/Q178H/Q39Y/Q99D/R42S/S66N/T262R/V115G/W38E/Y61H)
HLA-DR DRB1*1101 (DR11) = HLA-DR DRB1*1101 (DR11) (Homo sapiens, UniProt P01903+P01911, A100R/A169T/A87E/I96F/K41T/L162R/M171V/P40S/Q125H/Q178H/Q39Y/Q99D/R42S/S66Y/T262R/V115G/W38E)
HLA-DR DRB3*0101 (DR52) = HLA-DR DRB3*0101 (DR52) (Homo sapiens, UniProt P01903+P79483)
HLA-DR DRB1*0401 (DR4) = HLA-DR DRB1*0401 (DR4) (Homo sapiens, UniProt P01903+P01911, A100K/A169T/F76Y/I96L/K127E/L162R/M171V/N62H/P40V/Q125Y/R42H/S133A/S149N/S66Y/V115G/V209L/W38E)
HLA-DR DRB1*0405 (DR4) = HLA-DR DRB1*0405 (DR4) (Homo sapiens, UniProt P01903+P01911, A100R/A169T/D86S/F76Y/I96L/K127E/L162R/M171V/N62H/P40V/Q125Y/R42H/S133A/S149N/S66Y/V115G/V209L/W38E)
HLA-DR DRB1*0802 (DR8) = HLA-DR DRB1*0802 (DR8) (Homo sapiens, UniProt P01903+P01911, A100R/A103L/A169T/F76Y/H45Y/I96F/K41T/L162R/M171V/P40S/Q125H/Q178H/Q39Y/Q99D/R218S/R42G/S66Y/V115G/W38E)
HLA-DR DRB1*1501 (DR15) = HLA-DR DRB1*1501 (DR15) (Homo sapiens, UniProt P01903+P01911)
HLA-DR DRB1*0901 (DR9) = HLA-DR DRB1*0901 (DR9) (Homo sapiens, UniProt P01903+P01911, A100R/A103E/D57H/D86V/F55Y/F60I/F76Y/I96F/K127E/L162R/M171V/P40D/Q125H/Q99R/R33Q/R42F/S133A/S66N/T210M/V115G/W38K/Y107V/Y59G/Y89S); settings: DRB1 *0901

Sequence of HLA-DR DRB1*0301 (DR3) (P01903 26-254 limits assumed, other chains not shown): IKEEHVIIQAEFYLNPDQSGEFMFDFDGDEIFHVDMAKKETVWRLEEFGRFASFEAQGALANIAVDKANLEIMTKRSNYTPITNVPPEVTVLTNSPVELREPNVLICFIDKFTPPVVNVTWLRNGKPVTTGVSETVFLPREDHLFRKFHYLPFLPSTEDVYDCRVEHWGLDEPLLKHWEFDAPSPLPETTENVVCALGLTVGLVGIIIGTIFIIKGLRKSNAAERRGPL
Sequence of HLA-DR DRB1*1101 (DR11) (P01903 26-254 limits assumed, other chains not shown): as above
Sequence of HLA-DR DRB1*1302 (DR13) (P01903 26-254 limits assumed, other chains not shown): as above

Row | Sequence | IC50 (HLA-DR DRB1*0301 (DR3)) | IC50 (HLA-DR DRB5*0101 (DR51)) | IC50 (HLA-DR DRB4*0101 (DR53)) | IC50 (HLA-DR DRB1*0701 (DR7)) | IC50 (HLA-DR DRB1*0101 (DR1)) | IC50 (HLA-DR DRB1*1302 (DR13)) | IC50 (HLA-DR DRB1*1101 (DR11)) | IC50 (HLA-DR DRB3*0101 (DR52)) | IC50 (HLA-DR DRB1*0401 (DR4)) | IC50 (HLA-DR DRB1*0405 (DR4)) | IC50 (HLA-DR DRB5*0101 (DR51); DRB5 *0101) | IC50 (HLA-DR DRB1*0401 (DR4); DRB1 *0401) | IC50 (HLA-DR DRB1*0405 (DR4); DRB1 *0405) | IC50 (HLA-DR DRB1*1501 (DR15); DRBI *1501) | IC50 (HLA-DR DRB4*0101 (DR53); DRB4 *0101) | IC50 (HLA-DR DRB1*0101 (DR1); DRB1 *0101) | IC50 (HLA-DR DRB1*1302 (DR13); DRBI *1302) | IC50 (HLA-DR DRB1*1501 (DR15)) | other results
1 | GAPLGGLARALAHGV | 352 µM | 4.26 µM | 3.95 µM | 0.066 µM | 0.537 µM | 0.076 µM | 0.012 µM | 124 µM | 13.9 µM | > 13 µM | – | – | – | – | – | – | – | – | –
2 | HIEFTPTRTDTYACRV | – | – | – | – | – | – | – | > 7.14 µM | – | – | ≥ 200 µM | 30 µM | 10 µM | – | – | – | – | – | IC50 (HLA-DR DRB1*1101 (DR11); DRB1 *1101): ≥ 200 µM; IC50 (HLA-DR DRB1*0802 (DR8)): > 12.5 µM
3 | HLDMLRHLYQGCQVV | 37.6 µM | – | – | – | – | – | – | 107 µM | – | – | 7.09 µM | 9.42 µM | 3.59 µM | 0.359 µM | 0.163 µM | 0.304 µM | 2.88 µM | – | IC50 (HLA-DR DRB1*0701 (DR7); DRB1 *0701): 27 µM
4 | HYLKAKEDSHTAWTI | 70.2 µM | – | – | – | – | – | – | 35.8 µM | – | – | 19.6 µM | 0.553 µM | 15.1 µM | 0.529 µM | 11.8 µM | 0.232 µM | 2.26 µM | – | IC50 (HLA-DR DRB1*0701 (DR7); DRB1 *0701): 0.801 µM; IC50 (HLA-DR DRB1*1101 (DR11); DRB1 *1101): > 60.6 µM; IC50 (HLA-DR DRB1*0901 (DR9)): 10.1 µM
5 | RTITADTFRKLFRVY | – | – | – | – | – | – | – | 0.672 µM | – | – | 0.093 µM | 1.04 µM | 1.96 µM | 0.035 µM | 1.56 µM | 0.148 µM | 0.095 µM | – | IC50 (HLA-DR DRB1*0802 (DR8)): 0.792 µM
6 | VGGAYLLPRRGPRLGV | 309 µM | 0.05 µM | 37.6 µM | 0.703 µM | 0.131 µM | 24.7 µM | – | > 66.5 µM | 26.2 µM | > 12.2 µM | – | – | – | – | – | – | – | 0.0041 µM | –
7 | VGGVALLPRRGPRLGV | 326 µM | 20.5 µM | 25.7 µM | 61.6 µM | 0.849 µM | > 15.4 µM | – | > 66.5 µM | 48.2 µM | > 12.2 µM | – | – | – | – | – | – | – | 0.0085 µM | –
8 | VGGVYALPRRGPRLGV | 349 µM | 0.034 µM | – | 0.749 µM | – | > 15.4 µM | 0.012 µM | > 66.5 µM | 25.7 µM | > 12.2 µM | – | – | – | – | – | – | – | 0.451 µM | –
9 | VGGVYLAPRRGPRLGV | 203 µM | 0.076 µM | > 42.1 µM | 0.878 µM | 0.746 µM | > 15.4 µM | 0.035 µM | > 66.5 µM | 33.7 µM | > 12.2 µM | – | – | – | – | – | – | – | 0.055 µM | –
10 | VGGVYLLARRGPRLGV | 23.3 µM | 0.017 µM | 4.34 µM | 0.595 µM | 0.06 µM | – | 0.0065 µM | 17 µM | 0.485 µM | 2.2 µM | – | – | – | – | – | – | – | 0.0028 µM | –
11 | VGGVYLLPARGPRLGV | 68.1 µM | 0.04 µM | 19 µM | 0.049 µM | 0.012 µM | 0.201 µM | 0.694 µM | 18.1 µM | – | 4.58 µM | – | – | – | – | – | – | – | 0.0065 µM | –
12 | VGGVYLLRRAGPRLGV | 39.8 µM | 0.0079 µM | 30.7 µM | 0.433 µM | – | > 15.4 µM | 0.067 µM | 91.9 µM | – | 6.43 µM | – | – | – | – | – | – | – | 0.0062 µM | –
13 | YGAVVNLRKTVVNFP | 150 µM | – | – | – | – | – | – | 51.5 µM | – | – | 0.036 µM | 4.19 µM | > 95 µM | 0.47 µM | 0.302 µM | 13.5 µM | 11.2 µM | – | IC50 (HLA-DR DRB1*0701 (DR7); DRB1 *0701): 8.27 µM; IC50 (HLA-DR DRB1*1101 (DR11); DRB1 *1101): 0.089 µM
